Source: ChEMBL document CHEMBL5214900, “Design, Synthesis, and Biological Evaluation of Membrane-Active Bakuchiol Derivatives as Effective Broad-Spectrum Antibacterial Agents” (J Med Chem, 2021)
Values after ≈ are worked out from the molar mass of the structure shown.

Experiments:
[1] = system: Pseudomonas aeruginosa; assay: Antibacterial activity against Pseudomonas aeruginosa ATCC 9027 assessed as inhibition of bacterial growth incubated for 24 hrs by CLSI based broth dilution method; assay type: functional
[2] = system: Acinetobacter baumannii; assay: Antibacterial activity against Acinetobacter baumannii ATCC 17978 assessed as inhibition of bacterial growth incubated for 24 hrs by CLSI based broth dilution method; assay type: functional
[3] = system: Klebsiella pneumoniae; assay: Antibacterial activity against Klebsiella pneumoniae ATCC 14581 assessed as inhibition of bacterial growth incubated for 24 hrs by CLSI based broth dilution method; assay type: functional
[4] = system: Staphylococcus aureus; assay: Antibacterial activity against methicillin-resistant Staphylococcus aureus N315 assessed as inhibition of bacterial growth incubated for 24 hrs by CLSI based broth dilution method; assay type: functional
[5] = system: Acinetobacter baumannii; assay: Antibacterial activity against Acinetobacter baumannii R2889 assessed as inhibition of bacterial growth incubated for 24 hrs by CLSI based broth dilution method; assay type: functional
[6] = system: Escherichia coli; assay: Antibacterial activity against Escherichia coli ATCC 25922 assessed as inhibition of bacterial growth incubated for 24 hrs by CLSI based broth dilution method; assay type: functional
[7] = system: Staphylococcus aureus; assay: Antibacterial activity against methicillin-resistant Staphylococcus aureus NCTC10442 assessed as inhibition of bacterial growth incubated for 24 hrs by CLSI based broth dilution method; assay type: functional
[8] = Hemolytic activity in rabbit RBC measured after 1 hrs by multimode reader assay; assay type: toxicity, cell-based, Oryctolagus cuniculus, Erythrocyte; settings: rabbit red blood cells (erythrocytes)
[9] = system: Staphylococcus aureus; assay: Antibacterial activity against Staphylococcus aureus ATCC 29213 assessed as inhibition of bacterial growth incubated for 24 hrs by CLSI based broth dilution method; assay type: functional
[10] = system: Klebsiella pneumoniae; assay: Antibacterial activity against Klebsiella pneumoniae ATCC 10031 assessed as inhibition of bacterial growth incubated for 24 hrs by CLSI based broth dilution method; assay type: functional
[11] = system: Staphylococcus aureus; assay: Antibacterial activity against Staphylococcus aureus ATCC 29213 assessed as fold increase in MIC incubated for 24 hrs in presence of 1 mM Mg2+ by CLSI based broth dilution method; assay type: functional
[12] = system: Staphylococcus aureus; assay: Antibacterial activity against Staphylococcus aureus NCTC10442 assessed as fold increase in MIC incubated for 24 hrs in presence of 140 mM Na+ by CLSI based broth dilution method; assay type: functional
[13] = system: Escherichia coli; assay: Antibacterial activity against Escherichia coli ATCC 25922 assessed as fold increase in MIC incubated for 24 hrs in presence of 2.5 mM Ca2+ by CLSI based broth dilution method; assay type: functional
[14] = system: Staphylococcus aureus; assay: Antibacterial activity against Staphylococcus aureus NCTC10442 assessed as fold increase in MIC incubated for 24 hrs in presence of 4.5 mM K+ by CLSI based broth dilution method; assay type: functional
[15] = system: Acinetobacter baumannii; assay: Antibacterial activity against Acinetobacter baumannii ATCC 17978 assessed as fold increase in MIC incubated for 24 hrs in presence of 4.5 mM K+ by CLSI based broth dilution method; assay type: functional
[16] = system: Acinetobacter baumannii; assay: Antibacterial activity against Acinetobacter baumannii ATCC 17978 assessed as fold increase in MIC incubated for 24 hrs in presence of 1 mM Mg2+ by CLSI based broth dilution method; assay type: functional
[17] = system: Escherichia coli; assay: Antibacterial activity against Escherichia coli ATCC 25922 assessed as fold increase in MIC incubated for 24 hrs in presence of 140 mM Na+ by CLSI based broth dilution method; assay type: functional
[18] = system: Staphylococcus aureus; assay: Antibacterial activity against Staphylococcus aureus ATCC 29213 assessed as fold increase in MIC incubated for 24 hrs in presence of 4.5 mM K+ by CLSI based broth dilution method; assay type: functional
[19] = system: Acinetobacter baumannii; assay: Antibacterial activity against Acinetobacter baumannii ATCC 17978 assessed as fold increase in MIC incubated for 24 hrs in presence of 140 mM Na+ by CLSI based broth dilution method; assay type: functional
[20] = system: Escherichia coli; assay: Antibacterial activity against Escherichia coli ATCC 25922 assessed as fold increase in MIC incubated for 24 hrs in presence of 4.5 mM K+ by CLSI based broth dilution method; assay type: functional
[21] = system: Staphylococcus aureus; assay: Antibacterial activity against Staphylococcus aureus ATCC 29213 assessed as fold increase in MIC incubated for 24 hrs in presence of 140 mM Na+ by CLSI based broth dilution method; assay type: functional
[22] = system: Staphylococcus aureus; assay: Antibacterial activity against Staphylococcus aureus NCTC10442 assessed as fold increase in MIC incubated for 24 hrs in presence of 2.5 mM Ca2+ by CLSI based broth dilution method; assay type: functional
[23] = system: Staphylococcus aureus; assay: Antibacterial activity against Staphylococcus aureus ATCC 29213 assessed as fold increase in MIC incubated for 24 hrs in presence of 2.5 mM Ca2+ by CLSI based broth dilution method; assay type: functional
[24] = system: Escherichia coli; assay: Antibacterial activity against Escherichia coli ATCC 25922 assessed as fold increase in MIC incubated for 24 hrs in presence of 1 mM Mg2+ by CLSI based broth dilution method; assay type: functional
[25] = system: Acinetobacter baumannii; assay: Antibacterial activity against Acinetobacter baumannii ATCC 17978 assessed as fold increase in MIC incubated for 24 hrs in presence of 2.5 mM Ca2+ by CLSI based broth dilution method; assay type: functional
[26] = system: Staphylococcus aureus; assay: Antibacterial activity against Staphylococcus aureus NCTC10442 assessed as fold increase in MIC incubated for 24 hrs in presence of 1 mM Mg2+ by CLSI based broth dilution method; assay type: functional

Compound: C=C[C@@](C)(/C=C/c1ccc(OCCCCN(C)CCCN(C)C)cc1)CCC=C(C)C
- MIC [1]: 12.5 µg/mL (≈ 29.3 µM)
- MIC [2]: 1.56 µg/mL (≈ 3.66 µM)
- MIC [3]: 1.56 µg/mL (≈ 3.66 µM)
- MIC [4]: 1.56 µg/mL (≈ 3.66 µM)
- MIC [5]: 1.56 µg/mL (≈ 3.66 µM)
- MIC [6]: 3.12 µg/mL (≈ 7.32 µM)
- MIC [7]: 3.12 µg/mL (≈ 7.32 µM)
- HC50 at 1 h [8]: 32.5 µg/mL
- MIC [9]: 1.56 µg/mL (≈ 3.66 µM)
- MIC [10]: 1.56 µg/mL (≈ 3.66 µM)

Compound: C=C[C@@](C)(/C=C/c1ccc(OCCCC[N+](C)(CCCC)CCCC)cc1)CCC=C(C)C.[I-]
- MIC [4]: 0.78 µg/mL
- MIC [6]: 12.5 µg/mL
- MIC [7]: 0.39 µg/mL
- HC50 at 1 h [8]: 40.6 µg/mL
- MIC [9]: 1.56 µg/mL

Compound: C=C[C@@](C)(/C=C/c1ccc(OCCCN(CC)CC)cc1)CCC=C(C)C
- MIC [4]: 3.12 µg/mL (≈ 8.46 µM)
- MIC [6]: > 100 µg/mL
- MIC [7]: 3.12 µg/mL (≈ 8.46 µM)
- HC50 at 1 h [8]: 102 µg/mL
- MIC [9]: 3.12 µg/mL (≈ 8.46 µM)

Compound: C=C[C@@](C)(/C=C/c1ccc(OCCCCCCCCCCN(CC)CC)cc1)CCC=C(C)C
- MIC [4]: 3.12 µg/mL (≈ 6.68 µM)
- MIC [6]: > 100 µg/mL
- MIC [7]: 3.13 µg/mL (≈ 6.68 µM)
- HC50 at 1 h [8]: > 200 µg/mL
- MIC [9]: 12.5 µg/mL (≈ 26.7 µM)

Compound: C=C[C@@](C)(/C=C/c1ccc(OCCCCN(Cc2ccccn2)Cc2ccccn2)cc1)CCC=C(C)C
- MIC [4]: 1.56 µg/mL (≈ 3.06 µM)
- MIC [6]: > 100 µg/mL
- MIC [7]: 1.56 µg/mL (≈ 3.06 µM)
- HC50 at 1 h [8]: > 200 µg/mL
- MIC [9]: 3.12 µg/mL (≈ 6.13 µM)

Compound: C=C[C@@](C)(/C=C/c1ccc(OCCCCN(CCCC)CCCC)cc1)CCC=C(C)C
- MIC [4]: > 50 µg/mL
- MIC [6]: > 100 µg/mL
- MIC [7]: > 50 µg/mL
- HC50 at 1 h [8]: > 200 µg/mL
- MIC [9]: > 50 µg/mL

Compound: C=C[C@@](C)(/C=C/c1ccc(OCCCCN(C)CCCN(C)CCCNC)cc1)CCC=C(C)C
- MIC [1]: 3.12 µg/mL (≈ 6.46 µM)
- MIC [2]: 3.12 µg/mL (≈ 6.46 µM)
- fold change (FC) [11]: <2
- MIC [3]: 1.56 µg/mL (≈ 3.22 µM)
- MIC [4]: 0.78 µg/mL (≈ 1.61 µM)
- fold change (FC) [12]: <2
- fold change (FC) [13]: <2
- fold change (FC) [14]: <2
- fold change (FC) [15]: <2
- fold change (FC) [16]: <2
- MIC [5]: 3.12 µg/mL (≈ 6.46 µM)
- fold change (FC) [17]: <2
- fold change (FC) [18]: <2
- MIC [6]: 1.56 µg/mL (≈ 3.22 µM)
- MIC [7]: 1.56 µg/mL (≈ 3.22 µM)
- HC50 at 1 h [8]: 56.6 µg/mL
- fold change (FC) [19]: <2
- MIC [9]: 1.56 µg/mL (≈ 3.22 µM)
- fold change (FC) [20]: <2
- fold change (FC) [21]: <2
- fold change (FC) [22]: <2
- MIC [10]: 1.56 µg/mL (≈ 3.22 µM)
- fold change (FC) [23]: <2
- fold change (FC) [24]: <2
- fold change (FC) [25]: <2
- fold change (FC) [26]: <2

Compound: C=C[C@@](C)(/C=C/c1ccc(OCCCCN2CCN(C)CC2)cc1)CCC=C(C)C
- MIC [4]: 3.12 µg/mL (≈ 7.61 µM)
- MIC [6]: > 100 µg/mL
- MIC [7]: 3.12 µg/mL (≈ 7.61 µM)
- HC50 at 1 h [8]: 104 µg/mL
- MIC [9]: 1.56 µg/mL (≈ 3.8 µM)

Compound: C=C[C@@](C)(/C=C/c1ccc(OCCCCN(C)CCCNC)cc1)CCC=C(C)C
- MIC [1]: 6.25 µg/mL (≈ 15.1 µM)
- MIC [2]: 1.56 µg/mL (≈ 3.78 µM)
- MIC [3]: 3.12 µg/mL (≈ 7.57 µM)
- MIC [4]: 0.78 µg/mL (≈ 1.89 µM)
- MIC [5]: 6.25 µg/mL (≈ 15.1 µM)
- MIC [6]: 1.56 µg/mL (≈ 3.78 µM)
- MIC [7]: 1.56 µg/mL (≈ 3.78 µM)
- HC50 at 1 h [8]: 37.4 µg/mL
- MIC [9]: 1.56 µg/mL (≈ 3.78 µM)
- MIC [10]: 3.12 µg/mL (≈ 7.57 µM)
